{"source": "patent US8957061B2", "about": "“Azetidine derivatives as sphingosine 1-phosphate (S1P) receptor modulators” (Allergan, Inc., priority 2013, dated 2015)", "target": "T1, human S1P1 receptor (Homo sapiens, UniProt P21453)", "T1 construct": "expressed in transfected cells; membranes used", "T1 sequence (P21453 whole entry)": "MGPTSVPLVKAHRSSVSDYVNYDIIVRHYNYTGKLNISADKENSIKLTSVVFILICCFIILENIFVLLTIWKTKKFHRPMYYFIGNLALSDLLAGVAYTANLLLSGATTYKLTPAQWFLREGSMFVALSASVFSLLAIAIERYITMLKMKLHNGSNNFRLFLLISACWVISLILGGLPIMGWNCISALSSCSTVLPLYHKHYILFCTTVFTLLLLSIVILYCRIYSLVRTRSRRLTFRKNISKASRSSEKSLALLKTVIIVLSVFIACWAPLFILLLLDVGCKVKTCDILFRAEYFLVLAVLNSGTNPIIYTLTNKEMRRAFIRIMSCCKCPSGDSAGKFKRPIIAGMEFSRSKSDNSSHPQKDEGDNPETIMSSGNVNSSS", "test": "GTP γ35S binding assay for S1P1 activity", "type": "biochemical", "details": "activity potency, S1P1 receptor from GTP γ35S; membranes of cells stably expressing the S1P1 receptor; test concentrations 0.08 to 5,000 nM", "method": "Compounds were synthesized and tested for S1P1 activity using the GTP γ^35S binding assay. These compounds may be assessed for their ability to activate or block activation of the human S1P1 receptor in cells stably expressing the S1P1 receptor. GTP γ^35S binding was measured in the medium containing (mM) HEPES 25, pH 7.4, MgCl2 10, NaCl 100, dithiothreitol 0.5, digitonin 0.003%, 0.2 nM GTP γ^35S, and 5 μg membrane protein in a volume of 150 μl. Test compounds were included in the concentration range from 0.08 to 5,000 nM unless indicated otherwise. Membranes were incubated with 100 μM 5′-adenylylimidodiphosphate for 30 min, and subsequently with 10 μM GDP for 10 min on ice. Drug solutions and membrane were mixed, and then reactions were initiated by adding GTP γ^35S and continued for 30 min at 25° C. Reaction mixtures were filtered over Whatman GF/B filters under vacuum, and washed three times with 3 mL of ice-cold buffer (HEPES 25, pH7.4, MgCl2 10 and NaCl 100). Filters were dried and mixed with scintillant, and counted for ^35S activity using a β-counter. Agonist-induced GTP γ^35S binding was obtained by subtracting that in the absence of agonist. Binding data were analyzed using a non-linear regression method."}
{"smiles": "Cc1ccc(CC(CCC[S+]([O-])c2ccc(CN3CC(C(=O)O)C3)cc2)c2cccc(Cl)c2)cc1C", "note": "(stereo not shown) [Compound 1, 1-(4-{[4-(3-Chlorophenyl)-5-(3,4-dimethylphenyl)pentyl]sulfinyl}benzyl)azetidine-3-carboxylic acid]", "values": [{"measurement": "EC50", "result": 121, "unit": "nM"}]}
